Consider 2 substances from patent US12024571B2, “Anti-erythropoietin receptor peptide” (Epo-Med Inc., priority 2018, dated 2024).

Data set [1] deals with human pancreatic cancer derived AsPC-1 cells. The data set can be described thus: AsPC-1 cell proliferation, WST assay. The data set is classed as cell-based. The conditions noted are these: 10, 30 or 100 μM, 72 hours, FIG. 43. Here is the method:
Human pancreatic cancer derived AsPC-1 cells (ECACC, 96020930) were passaged (twice/week) under the condition of 37° C. and 5% CO2-95% air using an RPMI-1640 medium (Sigma, R8758-500 ML) comprising 10% fetal bovine serum (biowest, S182H-500) and 1 mM sodium pyruvate (gibco, 11360-070). The AsPC-1 cells were collected from a culture dish using 0.05% trypsin-0.02% EDTA solution (Sigma, T4174-100 ML). The cells were suspended in the medium and then seeded on a 96-well microplate (3×10^3/0.05 mL/well). After culturing the cells overnight, a medium comprising the test compounds (total of 43 compounds, final concentration of 150 μM) was added (0.05 mL/well, 3 wells/test compound). After 72 hours, the cell proliferation capability for each well was measured by a WST assay (DOJINDO LABORATORIES, Cell Counting Kit-8), and the inhibition ratio for each test compound against the control (test compound-free well) was calculated.
A WST assay is a viable cell count measuring method, which uses water-soluble tetrazolium salt WST-8 as a coloring reagent and uses water-soluble formazan generated by reduction of WST-8 as an indicator of viable cell count. NADH produced by a dehydrogenase in a cell converts WST-8 to water-soluble formazan. Since the generated water-soluble formazan has the maximum absorbance at about 450 nm, the viable cell count is indicated by measuring the absorbance at such a wavelength region.
Human pancreatic cancer derived AsPC-1 cells (ECACC, 96020930) were cultured, collected, and seeded on a 96-well microplate (3×10^3/0.05 mL/well) in the same manner as Example 3. After culturing the cells overnight, a medium comprising the test compounds (10, 30, or 100 μM) was added (0.05 mL/well, 3 wells/test compound). After 72 hours, the cell proliferation capability for each well was measured by a WST assay (DOJINDO LABORATORIES, Cell Counting Kit-8), and the inhibition ratio for each test compound against the control (test compound-free well) was computed.

Data set [2] has the same test system. The data set is described as follows: Tumor growth in AsPC-1 cancer-bearing nude mouse model. To be noted: intraperitoneal. The data set is classed as in vivo. The method, then:
(§1) Human pancreatic cancer derived AsPC-1 cells (ECACC, 96020930) were cultured and collected in the same manner as Example 3, suspended in the RPMI-1640 medium described above comprising 10% Matrigel (BD Bioscience, 354234), and transplanted subcutaneously to the right side on the back of a 6-week-old male nude mouse (SLC, BALB/cSlc-nu/nu) (5×10^6/0.1 mL/mouse). The length (L) and width (W) of the tumor were measured using a digital caliper. When the tumor volume (V) calculated from the formula V=L×W^2/2 reached about 150 to 200 mm^3, the mice were separated into groups and administered with test compounds (total of 8 compounds including GT-11263). Saline was administered to a control group. The compounds were administered intraperitoneally (0.1 mL/mouse, 3 to 5 mice/test compound) 3 times daily (one hour interval, a total of 0.2 mg/day), 3 times a week for 2 weeks. The tumor size and body weight were measured twice a week to monitor the status of tumor growth and the effect of the administration of test compounds.
In the same manner as Example 5, human pancreatic cancer derived AsPC-1 cells were transplanted subcutaneously to the right side on the back of a 6-week-old male nude mouse (SLC, BALB/cSlc-nu/nu) (5×10^6/0.1 mL/mouse). The length (L) and width (W) of the tumor were measured using a digital caliper. When the tumor volume (V) calculated from the formula V=L×W^2/2 reached about 150 to 200 mm^3, the mice were separated into groups and administered with test compounds (GT-11269, GT-11309, and GT-11350). Saline was administered to a control group. The compounds were administered intraperitoneally (0.1 mL/mouse, 5 mice/test compound) 3 times daily (one hour interval, a total of 0.5 mg/day), twice a week for 4 weeks. The tumor size and body weight were measured twice a week to monitor the effect of the administration of test compounds (FIG. 45).
(§2) In the same manner as Example 5, human pancreatic cancer derived AsPC-1 cells were transplanted subcutaneously to the right side on the back of a 6-week-old male nude mouse (SLC, BALB/cSlc-nu/nu), and when the tumor volume (V) reached about 150 to 200 mm^3, the mice were separated into groups and administered with test compounds (GT-11350). Saline was administered to a control group. The compounds were administered intraperitoneally (0.1 mL/mouse) 3 times daily (one hour interval, a total of 0.1 mg, 0.2 mg, or 0.4 mg/day), twice a week for 4 weeks. The tumor size and body weight were measured twice a week to monitor the effect of the dose of test compounds (FIG. 49).
as §2, with “of” for “of 0.1 mg,”, “mg/day)” for “mg,”, “once daily (0.2” for “0.4”, “administration” for “dose”, “compounds.” for “compounds (FIG. 49).”

The subject of data set [3] is human breast cancer derived HCC1806 cells. The data set can be described thus: HCC1806 breast cancer cell proliferation, amount of ATP (CellTiter-Glo 2.0). The data set is classed as cell-based. To be noted: 0 to 100 μM, 72 hours; FIG. 44 right. The method, then:
(§3) Human breast cancer derived HCC1395 cells (ATCC, CRL-2327) and HCC1806 (ATCC, CRL-2335) were cultured, collected, and seeded on a 384-well microplate (1×10^3 and 3×10^3/0.04 mL/well). After culturing the cells overnight, a medium comprising GT-11350 (0 to 100 μM) was added (0.01 mL/well). After 72 hours, the cell proliferation capability for each well against the control (test compound-free well) was calculated using the amount of ATP as an indicator, which was measured using CellTiter-Glo 2.0 (Promega, G9242).

In data set [4] the test system is human breast cancer derived HCC1395 cells. The data set can be described thus: HCC1395 breast cancer cell proliferation, amount of ATP (CellTiter-Glo 2.0). The data set is classed as cell-based. The conditions noted are these: 0 to 100 μM, 72 hours; FIG. 44 left. Here is the method:
as §3

Data set [5] in a line: Body weight of AsPC-1 cancer-bearing mice given peptides. The data set is classed as in vivo, mouse. To be noted: total 0.1, 0.2 or 0.4 mg/day, twice a week for 4 weeks; FIG. 49. Here is the method:
as §1, with “The compounds were administered intraperitoneally (0.1 mL/mouse, 3 to 5 mice/test compound) 3 times daily (one hour interval, a total of 0.2 mg/day), 3 times a week for 2 weeks.” left out
In the same manner as Example 5, human pancreatic cancer derived AsPC-1 cells were transplanted subcutaneously to the right side on the back of a 6-week-old male nude mouse (SLC, BALB/cSlc-nu/nu) (5×10^6/0.1 mL/mouse). The length (L) and width (W) of the tumor were measured using a digital caliper. When the tumor volume (V) calculated from the formula V=L×W^2/2 reached about 150 to 200 mm^3, the mice were separated into groups and administered with test compounds (GT-11269, GT-11309, and GT-11350). […]

Data set [6] in a line: Hematocrit value and blood hemoglobin concentration in AsPC-1 cancer-bearing mice. The conditions noted are these: day 4 from final administration, 0.1, 0.2 or 0.4 mg/day; FIG. 50. The data set is classed as in vivo, mouse. The method, then:
Blood was drawn on day 6 from the final administration from an AsPC-1 cancer-bearing mouse administered with GT-11269, GT-11309, or GT-11350 by the same protocol, and the hematocrit value was measured by the capillary method using a high speed centrifuge. The blood hemoglobin concentration was also measured using a commercially available measurement kit (BioAssay Systems, DIHB-250) (FIG. 47).
Blood was drawn on day 4 from the final administration from an AsPC-1 cancer-bearing mouse administered with GT-11350 by the same protocol, and the hematocrit value was measured by the capillary method using a high speed centrifuge. The blood hemoglobin concentration was also measured using a commercially available measurement kit (BioAssay Systems, DIHB-250) (FIG. 50).

Data set [7] deals with human leukemia derived UT-7 cells. The data set can be described thus: Epo dependent UT-7 cell proliferation, WST assay. To be noted: Epo 1 U/mL, 4 days; GT-11309 1 to 100 μM, antibodies 1 to 100 μg/mL; FIG. 42. The data set is classed as cell-based. Here is the method: Human leukemia derived UT-7 cells (provided by Dr. Fujita at the Hokkaido University) were passaged (twice/week) under the condition of 37° C. and 5% CO2-95% air using a D-MEM medium (Sigma, D5796-500 ML) comprising recombinant human erythropoietin (Epo, 2 U/mL) and 10% fetal bovine serum (biowest, S182-H-500), and cultured for a total of 9 weeks. The Epo treated UT-7 cells were washed three times and seeded on a 96-well microplate (1×10^4/well). An anti-Epo monoclonal antibody (clone R6, provided by Dr. Masuda at the Kyoto University, 1 to 100 μg/mL), anti-EpoR monoclonal antibody (clone 713210, R&D Systems, MAB3073, 1 to 100 μg/mL) or GT-11309 (1 to 100 μM), in the presence of Epo (0 to 10 U/mL) or Epo (1 U/mL), was added. After 4 days of culture, the cell proliferation capability for each well was measured as absorbance at 450 nm by a WST assay (DOJINDO LABORATORIES, Cell Counting Kit-8).

Data set [8] deals with human liver cancer derived HepG2 cells. The data set can be described thus: Lethal effect of synthetic peptides on HepG2 cells (Trypan blue positive cell count). The data set is classed as cell-based. To be noted: 120, 60, 30 or 15 μM, 24 hours; FIGS. 34 to 37.
Data set [9] deals with human T cell leukemia derived ATL-2 cells. The data set is described as follows: ATL-2 cell proliferation, WST assay. The data set is classed as cell-based. The conditions noted are these: 150 μM, 72 hours, FIG. 39. The method, then: Human T cell leukemia derived ATL-2 cells (provided by Dr. Maeda at the Kyoto University) were passaged (twice/week) under the condition of 37° C. and 5% CO2-95% air using an RPMI-1640 medium (Sigma, R8758-500 mL) comprising 10% fetal bovine serum (biowest, S182H-500). The ATL-2 cells were collected from a culture flask. The cells were suspended in the medium and then seeded on a 96-well microplate (3×10^3/0.05 mL/well). After culturing the cells overnight, a medium comprising the test compounds (total of 32 compounds, final concentration of 150 μM) was added (0.05 mL/well, 3 wells/test compound). After 72 hours, the cell proliferation capability for each well was measured by a WST assay (DOJINDO LABORATORIES, Cell Counting Kit-8), and the inhibition ratio for each test compound against the control (test compound-free well) was calculated.

Bridge positions count the residues as written; N and C are the ends. Square brackets hold non-standard residues; d marks the D form. Ala(benzothiazol-2-yl) = N[C@@H](Cc1nc2ccccc2s1)C(=O)O

On to “Ac-SCHYGPMT(2-benzothiazolylalanine)VCK-NH2 [GT-11350]”, for which, in [1], the “proliferation inhibiting action against AsPC-1 cells (inhibition ratio against control)” value is recorded as “potent proliferation inhibiting action”. The “anti-tumor effect, 3 times daily versus once daily” value in data set [2] (0.2 mg/day, 3 times daily or once daily, twice a week for 4 weeks, FIG. 51) is “same anti-tumor effect for both 3 times daily and once daily administration methods”. In addition, the “anti-tumor effect (relative tumor volume) by dose” value in data set [2] (3 times daily, total 0.1, 0.2 or 0.4 mg/day, twice a week for 4 weeks, FIG. 49) was “dose dependent anti-tumor effect”. The “proliferation suppressing capability against breast cancer cell line HCC1806” value in data set [3] is reported as “exhibited proliferation suppressing capability”. Further, the “proliferation suppressing capability against breast cancer cell line HCC1395” value in data set [4] is “exhibited proliferation suppressing capability”. Also, in data set [5], the body weight result was “not affected”. In [6], the blood hemoglobin concentration result is given as “none of the doses had an effect” and the hematocrit value result is listed as “none of the doses had an effect”.

“Ac-SCHYGPLT(2-benzothiazolylalanine)VCK-NH2 (Ac-SCHYGPLT[Ala(benzothiazol-2-yl)]VCK-NH2; disulfide 2-11 (inferred)) [GT-11309]”: the “proliferation inhibiting action against AsPC-1 cells (inhibition ratio against control)” value in data set [1] is on record as “potent proliferation inhibiting action”. Further, the “antitumor effect (relative tumor volume)” value in [2] (3 times daily, total 0.2 mg/day, 3 times a week for 2 weeks, FIG. 40) was “potent and had an early manifestation of effect”. Further, in [7], the “Epo dependent cancer cell proliferation (UT-7)” value was “suppressed Epo dependent cancer cell proliferation”. The “HepG2 cell killing effect compared with YS12 (Trypan blue positive cells per 1 mm^2)” value in data set [8] is recorded as “equivalent or greater than that of YS12”. Also, the “proliferation inhibiting action on ATL-2 cells (inhibition ratio against control)” value in data set [9] is listed as “potent proliferation inhibiting action”.
